According to article PMC11249953, “c-KIT inhibitors reduce pathology and improve behavior in the Tg(SwDI) model of Alzheimer’s disease” (Life Science Alliance, 2024):

What was measured:
RIOK3 = target: T1, RIOK3 (Homo sapiens, UniProt O14730); assay: KINOMEscan competition binding, RIOK3; details: 10 µM compound; for remaining binding at 10 µM: lower = stronger binding, read-out: RIOK3 %Ctrl @ 10000nM (POC)
T1 construct: DNA label for qPCR read-out (T7 phage fusion or DNA tag); purchased Eurofins DiscoverX Corporation; host or cells: T7 phage in E. coli (BL21-derived) or HEK-293
T1 sequence (O14730 1-519): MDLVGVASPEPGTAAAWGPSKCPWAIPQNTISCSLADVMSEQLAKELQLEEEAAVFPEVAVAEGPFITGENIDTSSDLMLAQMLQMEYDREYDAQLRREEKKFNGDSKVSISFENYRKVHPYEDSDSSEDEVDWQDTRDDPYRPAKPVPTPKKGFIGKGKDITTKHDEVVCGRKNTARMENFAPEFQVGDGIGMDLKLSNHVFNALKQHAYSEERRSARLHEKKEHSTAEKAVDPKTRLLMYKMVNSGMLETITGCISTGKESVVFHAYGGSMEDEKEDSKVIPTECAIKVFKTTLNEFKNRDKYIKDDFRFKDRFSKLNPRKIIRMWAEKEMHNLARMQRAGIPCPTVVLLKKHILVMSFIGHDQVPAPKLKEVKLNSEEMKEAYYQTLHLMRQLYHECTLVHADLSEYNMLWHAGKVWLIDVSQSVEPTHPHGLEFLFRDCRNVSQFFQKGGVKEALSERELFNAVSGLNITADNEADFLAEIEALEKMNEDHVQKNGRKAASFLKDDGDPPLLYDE
Procedure: The KINOMEscan screening platform (Eurofins DiscoverX Corporation) was performed using active site-directed competition binding assay to quantitatively measure interactions between BK40143 and BK40197 and more than 450 human kinases and disease relevant mutant variants. […] Screening “hits” are identified by measuring the amount of kinase captured in test (BK40143 and BK40197) versus control samples by using a quantitative and ultra-sensitive qRT-PCR method that detects the associated DNA label. BK40143 and BK40197 were screened at 10 µM concentration, and results for primary screen binding interactions were reported as “% Ctrl” (POC), where lower numbers indicate stronger hits and calculated as follows: [test compound signal−positive control signal/negative control signal−positive control signal]×100
negative control = DMSO (100% Ctrl)
positive control = control compound (0% Ctrl)
Based on screening data from of profiled compounds, a proportional relationship between primary screening results and corresponding compound/target affinities can be described as binding constants (Kd values) for the indicated ranges of POC values with tighter binding (higher affinity) interactions associated with lower POC values and weaker binding (lower affinity) associated with higher POC values. Briefly, kinase-tagged T7 phage strains were grown in parallel in 24-well blocks in an E. coli host derived from the BL21 strain. E. coli were grown to log-phase and infected with T7 phage from a frozen stock (multiplicity of infection = 0.4) and incubated with shaking at 32°C until lysis (90–150 min). The lysates were centrifuged (6,000g) and filtered (0.2 μm) to remove cell debris. The remaining kinases were produced in HEK-293 cells and subsequently tagged with DNA for qRT-PCR detection. Streptavidin-coated magnetic beads were treated with biotinylated small molecule ligands for 30 min at RT to generate affinity resins for kinase assays. The liganded beads were blocked with excess biotin and washed with blocking buffer (1% BSA, 0.05% Tween 20, 1 mM DTT; SeaBlock [Pierce]) to remove unbound ligand and to reduce non-specific phage binding. Binding reactions were assembled by combining kinases, liganded affinity beads, and test compounds in 1x binding buffer (20% 0.17x PBS, 0.05% Tween 20, 6 mM DTT; SeaBlock). Test compounds were prepared as 100x stocks in 100% DMSO and directly diluted into the assay. All reactions were performed in polypropylene 384-well plates in a final volume of 0.02 ml. The assay plates were incubated at RT with shaking for 1 h and the affinity beads were washed with wash buffer (1x PBS, 0.05% Tween 20). […] The kinase concentration in the eluates was measured by qRT-PCR.

[1] = test system: SH-SY5Y neuroblastoma cells transfected with α-synuclein; assay: In vitro autophagy assay (Abcam kit, flow cytometry); type: cell-based, human; details: 10 μM, vs DMSO
Procedure: To establish that treatment with BK40143 and BK40197 induces autophagy, human SH-SY5Y neuroblastoma cells were transfected with an α-synuclein plasmid before being treated with rapamycin/chloroquine as a positive control, DMSO as a negative control, or an ascending dose ([…]) of either BK40143 or BK40197 for 8 h. Cells were then harvested and treated using the Abcam Autophagy Assay kit, which uses a cationic amphiphilic tracer to stain autophagic vacuoles, before analysis via flow cytometry.
Human SH-SY5Y neuroblastoma cells were grown and cultured in F12 media with 10% fetal bovine serum, 1% L-glutamine, and 1% pen/strep at normal atmospheric conditions (37°C, 21% O2, 5% CO2). Upon reaching 50–70% confluence, cells were transduced with a lentivirus containing an alpha-synuclein plasmid and allowed to grow for 8 h. Cells were then treated with an ascending dose (100 nM–10 μM) of BK40143 or BK40197, or DMSO or rapamycin/chloroquine overnight before being harvested and treated with the Abcam Autophagy Assay kit (cat. #ab139484) according to manufacturer’s protocols. Cells were then resuspended in cell staining buffer before being analyzed on a Becton Dickinson LSRFortessas flow cytometer.

WT mice (C57BL/6) = assay: Drug tolerability assessment (multiple ascending dose); type: in vivo; details: for maximum tolerable dose: IP daily, multiple ascending dose, WT mice; for therapeutic safe dose in animals: both, C57BL/6, mouse
Procedure: 3–4-mo-old WT mice (male and female, C57BL/6) were IP injected with starting doses of 10 mg/kg of BK40143 or BK40197 daily for 5 d before a 2-d washout period. […] BK40197 dosage was increased in 10 mg/kg increments for 5 d each until the maximum tolerable dose of 50 mg/kg was reached. All animal work was approved by GUACUC.

Cc1cccc(-c2cc3nccc(N4CCOCC4)c3s2)c1 [BK40197]
inhibition at 10 µM (RIOK3): 95.2%
remaining binding at 10 µM (RIOK3): 4.8%
labelled cells (autophagic vacuoles), induction of autophagy [1]: significant increases in labelled cells
maximum tolerable dose (WT mice (C57BL/6)): 45 mg/kg
therapeutic safe dose in animals (WT mice (C57BL/6); in vivo): ≤ 45 mg/kg

Cc1cccc(-c2cc3nccc(Nc4ccccc4)c3s2)c1 [BK40143]
inhibition at 10 µM (RIOK3): 80%
remaining binding at 10 µM (RIOK3): 20%
labelled cells (autophagic vacuoles), induction of autophagy [1]: significant increases in labelled cells
maximum tolerable dose (WT mice (C57BL/6)): 7.5 mg/kg
therapeutic safe dose in animals (WT mice (C57BL/6); in vivo): up to 7.5 mg/kg
tolerability at starting dose (WT mice (C57BL/6); mouse, in vivo): rodent mortality
